The results in this text go back to patent US20260139004A1, “PEPTIDE HAVING ACTIVITIES OF PROMOTING HAIR GROWTH AND INHIBITING HAIR LOSS, AND USES THEREOF” (CAREGEN CO., LTD., priority 2022, published 2026).

In assay [1] the test system is extracellular-regulated kinase (ERK). The assay can be described thus: Western blot of phospho-ERK in HHFDPCs. Type of assay: cell-based, human. The note with it: peptide at 500 nM, 5 μM and 50 μM, 24 hours, FIG. 2. On the procedure: (§1) The effect of the peptide prepared in Preparation Example 1 above on the activation of proliferation-related signaling molecules in human hair follicle dermal papilla cells (HHFDPCs) was confirmed by Western blot method.
(§2) HHFDPCs were seeded in a 6-well cell culture plate at a density of 4×10^5 cells/well and cultured for 24 hours under mesenchymal stem cell complete media conditions. Then, the medium was replaced with serum-free mesenchymal stem cell medium and cultured for additional 24 hours. The cultured cell culture was treated with the peptide prepared in Preparation Example 1 above at 500 nM, 5 μM, and 50 μM, respectively, 1 μM of Minoxidil (MNX) and 1 μM of VEGF were treated to serve as a positive control, and not treated with anything to serve as a negative control (con), and the cultures treated with these materials were cultured at 37° C. for additional 24 hours. After washing each culture with PBS, the cells were lysed by treatment with lysis buffer to obtain a cell lysate. Equal amounts of protein samples were prepared by BCA quantification of cell lysates. The prepared protein samples were subjected to electrophoresis using 10% SDS-PAGE. […] The resultant was washed 3 times for 15 minutes each with 0.1% PBS-T (0.1% Tween-20 in PBS), treated with ECL solution (GE Healthcare, USA), and detected with a film.
In general terms: A western blot detects proteins with antibodies after separation by electrophoresis.

A further assay concerns Ha3-II. Briefly: RT-PCR of Ha3-II gene expression in HHORSCs. Format: cell-based, human. The note with it: peptide at 500 nM, 5 μM and 50 μM, 24 hours, FIG. 6. On the procedure:
(§3) The effect of the peptide prepared in Preparation Example 1 above on the activation of human hair outer root sheath cells (HHORSCs) was confirmed by measuring the expression of cytokeratin proteins.
(§4) HHORSCs were seeded in a 96-well cell culture plate at a density of 4×10^3 cells/well and cultured for 24 hours under mesenchymal stem cell complete media conditions. Then, the medium was replaced with serum free mesenchymal stem cell medium and cultured for additional 24 hours. The cultured cell culture was treated with 500 nM, 5 μM, and 50 μM of the peptide prepared in Preparation Example 1 above, respectively, and treated with 100 nM of epidermal growth factor (EGF) as a positive control, and negative when not treated with anything to serve as a negative control (con), and these cultures were cultured at 37° C. for 24 hours. After washing each culture with PBS, RNA was isolated by treatment with 300 μL of eaay blue (Intron, South Korea). The isolated RNA was quantified using Nano drop, and then subjected to cDNA synthesis using a cDNA synthesis kit (Enzynomics, South Korea). Then, a PCR reaction was performed using the primers shown in Table 3 below and a PCR premix (Enzynomics, South Korea). The PCR reaction product was electrophoresed on a 1.5% agarose gel, and the bands were detected using the Bio-Rad Gel Image System.

Another assay relates to Keratin 19. Briefly: RT-PCR of Keratin 19 gene expression in HHORSCs. As to conditions: peptide at 500 nM, 5 μM and 50 μM, 24 hours, FIG. 6. Type of assay: cell-based, human. On the procedure: as §3, §4
Another assay relates to c-Myc. The assay can be described thus: RT-PCR of c-Myc gene expression in HHFDPCs. Type of assay: cell-based, human. The note with it: peptide at 500 nM, 5 μM and 50 μM, 24 hours, FIG. 4. The procedure:
(§5) The effect of the peptide prepared in Preparation Example 1 above on the expression levels of lymphoid enhancer-binding factor 1 (LEF-1) and c-Myc, which are downstream genes of beta-catenin, in human hair follicle dermal papilla cells (HHFDPCs) was determined by the RT-PCR method.
(§6) HHFDPCs were seeded in a 6-well cell culture plate at a density of 4×10^5 cells/well and cultured for 24 hours under mesenchymal stem cell complete media conditions. Then, the medium was replaced with serum free mesenchymal stem cell medium and cultured for additional 24 hours. The cultured cell culture was treated with the peptide prepared in Preparation Example 1 above at 500 nM, 5 μM, and 50 μM, respectively, and treated with 10 ng/mL of rhWnt-3a (recombinant human Wnt-3a protein, R&D systems (MN, USA) to serve as a positive control, and not treated with anything to serve as a negative control (con), and each was cultured at 37° C. for additional 24 hours. After washing each culture with PBS, RNA was isolated therefrom by treatment with 300 μL of eaay blue (Intron, South Korea). The isolated RNA was quantified using Nano drop, and then subjected to cDNA synthesis using a cDNA synthesis kit (Enzynomics, South Korea). […] The PCR reaction product was electrophoresed on a 1.5% agarose gel, and the bands were detected using the Bio-Rad Gel Image System.

A further assay concerns Akt. Briefly: Western blot of phospho-AKT in HHFDPCs. Type of assay: cell-based, human. As to conditions: peptide at 500 nM, 5 μM and 50 μM, 24 hours, FIG. 2. The procedure: as §1, §2
For a further assay, the system named is DKK-1. The assay can be described thus: Western blot of DHT-induced DKK-1 in HHFDPCs. Format: cell-based, human. As to conditions: peptide at 500 nM, 5 μM and 50 μM with 100 nM DHT, 24 hours, FIG. 5. The source says: It is known that in hair follicles, dihydrotestosterone (DHT) promotes the expression of Dickkopf-1 (DKK-1), and DKK-1 induced by DHT inhibits the proliferation of keratinocytes in hair follicles and causes their apoptosis, thereby promoting hair loss (J of Invest Dermatolo. 2008, February, 128(2), pp. 262-269.). The effect of the peptide prepared in Preparation Example 1 above on the expression level of the hair loss-inducing protein DKK-1 in human hair follicle dermal papilla cells (HHFDPCs) was confirmed by Western blot method.
HHFDPCs were seeded in a 6-well cell culture plate at a density of 4×10^5 cells/well and cultured for 24 hours under mesenchymal stem cell complete media conditions. Then, the medium was replaced with serum-free mesenchymal stem cell medium and cultured for additional 24 hours. The cultured cell culture was treated with 500 nM, 5 μM, and 50 μM of the peptide prepared in Preparation Example 1 above, respectively. treated with 5 μM of finasteride to serve as a positive control, and not treated with anything to serve as a negative control group (con). […] Equal amounts of protein samples were prepared by BCA quantification of cell lysates. […] The resultant was washed 3 times for 15 minutes each with 0.1% PBS-T (0.1% Tween-20 in PBS), treated with ECL solution (GE Healthcare, USA), and detected with a film.

Another assay has as its system beta-catenin. The assay can be described thus: Western blot of nuclear beta-catenin in HHFDPCs. Type of assay: cell-based, human. The note with it: peptide at 500 nM, 5 μM and 50 μM, 24 hours, nuclear protein Western blot, FIG. 3. On the procedure:
The effect of the peptide prepared in Preparation Example 1 above on the activation of beta-catenin in human hair follicle dermal papilla cells (HHFDPCs) was confirmed by Western blot method.
HHFDPCs were seeded in a 6-well cell culture plate at a density of 4×10^5 cells/well and cultured for 24 hours under mesenchymal stem cell complete media conditions. Then, the medium was replaced with serum-free mesenchymal stem cell medium and cultured for additional 24 hours. The cultured cell culture was treated with the peptide prepared in Preparation Example 1 above at 500 nM, 5 μM, and 50 μM, respectively, and treated with 10 ng/mL of rhWnt-3a (recombinant human Wnt-3a protein, R&D systems (MN, USA) to serve as a positive control, and not treated with anything to serve as a negative control (con). The cultures treated with these materials were incubated at 37° C. for additional 24 hours. After washing each culture with PBS, nuclear proteins were isolated using a nuclear protein extraction kit (Thermo scientific, USA), and an equal amount of protein sample was prepared by BCA quantification. The prepared protein samples were subjected to electrophoresis using 10% SDS-PAGE. […] The resultant was washed 3 times for 15 minutes each with 0.1% PBS-T (0.1% Tween-20 in PBS), treated with ECL solution (GE Healthcare, USA), and detected with a film.

The test system of the next assay is Keratin 14. Briefly: RT-PCR of Keratin 14 gene expression in HHORSCs. Type of assay: cell-based, human. As to conditions: peptide at 500 nM, 5 μM and 50 μM, 24 hours, FIG. 6. The procedure: as §3, §4
Assay [2] relates to human hair follicle dermal papilla cells (HHFDPCs). The assay can be described thus: Proliferation of human hair follicle dermal papilla cells (MTT). Type of assay: cell-based. As to conditions: peptide at 500 nM, 5 μM and 50 μM, 72 hours, absorbance 540 nm, FIG. 1. The procedure: The effect of the peptide prepared in Preparation Example 1 above on the proliferation of human hair follicle dermal papilla cells (HHFDPCs) was tested.
HHFDPCs were seeded in a 96-well cell culture plate at a density of 4×10^3 cells/well and cultured for 24 hours under mesenchymal stem cell complete media conditions. Then, the medium was replaced with serum-free mesenchymal stem cell medium and cultured for additional 24 hours. The cultured cell culture was treated with the peptide prepared in Preparation Example 1 above at 500 nM, 5 μM, and 50 μM, respectively, treated with 1 μM VEGF to serve as a positive control, and not treated with anything to serve as a negative control (con), and these cultures were cultured at 37° C. for additional 72 hours. Thereafter, 10 μL of MTT solution (5 mg/mL) was added thereto, and the mixture was incubated in a CO2 incubator at 37° C. for 4 hours, the medium was removed, and 100 μL of DMSO was added thereto and shaken for 10 minutes. Finally, the absorbance was measured at a wavelength of 540 nm using a spectrophotometer (Molecular Devices (SpectraMax iD3, CA, USA)).

The next assay concerns Keratin 5. The assay can be described thus: RT-PCR of Keratin 5 gene expression in HHORSCs. Format: cell-based, human. The note with it: peptide at 500 nM, 5 μM and 50 μM, 24 hours, FIG. 6. The procedure: as §3, §4
In the next assay the test system is LEF-1. Briefly: RT-PCR of LEF-1 gene expression in HHFDPCs. Type of assay: cell-based, human. As to conditions: peptide at 500 nM, 5 μM and 50 μM, 24 hours, FIG. 4. On the procedure: as §5, §6

Take “LKRYKHLV (Leu-Lys-Arg-Tyr-Lys-His-Leu-Val) [peptide of Preparation Example 1]”: in [1], the “phosphorylation of extracellular-regulated kinase (ERK)” value is “increased”. Further, the “gene expression of Ha3-II” value in the assay on Ha3-II was “increasing”. Besides, in the assay on Keratin 19, the “gene expression of Keratin 19” value is listed as “increasing”. The “gene expression of c-Myc” value in the assay on c-Myc is on record as “increased”. For the same sequence, the “phosphorylation of Akt” value with Akt is “increased”. The “expression of DKK-1 induced by DHT treatment” value in the assay with DKK-1 is “reduced in a concentration-dependent manner”. Besides, in the assay with beta-catenin, the “beta-catenin activation and movement to the nucleus” value is on record as “increased”. For the same sequence, in the assay on Keratin 14, the “gene expression of Keratin 14” value was “increasing”. Besides, the “proliferation of HHFDPC compared to the negative control (con)” value in assay [2] is reported as “promoted”. Further, the “gene expression of Keratin 5” value in the assay with Keratin 5 is given as “increasing”. Besides, the “gene expression of LEF-1” value in the assay on LEF-1 is “increased”.
